{
  "source": "patent US20180312539A1",
  "about": "“METHODS FOR PREPARING HIGH THROUGHPUT PEPTIDOMIMETICS, ORALLY BIOAVAILABLE DRUGS AND COMPOSITIONS CONTAINING SAME” (University of Southern California, priority 2011, published 2018)",
  "key": {"[1]": {"conditions": "mouse, iv", "experimental": "200 μL of peptide was administered by IV injection into the tail vein of C57BL6 mice at a dose of 10 mg/kg. 50 μL blood samples were taken at various time points by orbital bleeding using heparin coated capillary tubes and isoflurane for anesthesia. Samples are diluted to 600 μLin TE buffer (pH=8.0) then filtered by centrifugation through a 3000 MWCO filter. The flowthrough was analyzed on a Shimadzu RF-5301 PC fluorometer. Time points were integrated and analyzed using Prism 5.0 software.\nTo that end mice were administered peptide conjugated to fluorescein by IV injection into the tail vein. Blood samples were taken by orbital bleeding. Blood peptide concentration was determined by comparing fluorescence to a 15 minute time point."}, "[2]": {"set-up": "species or system C57BL6 mice", "conditions": "mouse, in vivo, po, 10 mg/kg", "method": "The following peptides were synthesized for oral administration: […](FAM) (SEQ ID NO: 14), […](FAM)DK(Palmitoleic acid) (SEQ ID NO: 15), and […](FAM) (SEQ ID NO: 16), wherein FAM is a lysine derivative containing fluorescein. All peptides were cyclized from the side chain to lysine to the N-terminus as previously described. Anesthetized C57BL6 mice had peptide administered at a dose of 10 mg/kg by oral gavage. After administration, mice were removed from isoflurane. At various time points, blood samples were taken by orbital bleeding as previously described. Peaks were normalized to a 15 minute time point from mice that had peptide administered by IV injection.\nThe following peptides were synthesized for oral administration: […](FAM) (SEQ ID NO: 14), […](FAM) (SEQ ID NO: 16), […](FAM)DK(biotin) (SEQ ID NO: 38), and […](FAM)DK(Palmitoleic acid) (SEQ ID NO: 15). All peptides were cyclized from the side chain to lysine to the N-terminus as previously described in Millward, S. W. et al. (2007) ACS Chem. Biol. 2:625. Anesthetized C57BL6 mice had peptide administered at a dose of 10 mgs/Kg by oral gavage. After administration, mice were removed from isoflurane. At various time points, blood samples were taken by orbital bleeding as previously described. Peaks were normalized to a 20 minute time point from mice that had peptide administered by IV injection. Area under the curve was analyzed by Graphpad 5.0.\nIn addition to accessing intracellular targets in cell culture, deriving a simple modification that would facilitate oral bioavailability of peptidic ligands would be greatly beneficial for therapeutic development. Intestinal absorption of both fatty acids and biotin is nearly 100% efficient. Zempleni, J. and Mock, D. M. (1999) The American Journal of Clinical Nutrition 69:504. […] Applicants synthesized a protease resistant peptide with the sequence […]-mod (designated SUPR peptide) (SEQ ID NO: 50), where A is N-methyl alanine, the peptide is cyclized from lysine to the N-terminus, and K(mod) is lysine with a modified sidechain including either biotin or palmitoleic acid. Palmitoleic acid is a monounsaturated fatty acid chosen for its ability to bind human serum albumin, and its low melting point allowing for more favorable solubility of conjugated peptides as compared to […] fatty acid conjugates. This peptide was administered to mice at a dose of 10 mg/kg by oral gavage. At various time points, blood was taken from the mice by orbital bleeding. After processing, fluorescence was quantified and compared to the maximum signal obtained by IV injection of peptide at the same dose."}, "chymotrypsin [3]": {"target": "T1, chymotrypsin (Bos taurus, UniProt P00766)", "T1 construct": "purchased Sigma", "assay": "Basic kinetic study with chymotrypsin (Km, Vmax)", "assay_type": "biochemical", "conditions": "relative to cycGIBP", "description": "Crystal structures of serine proteases such as chymotrypsin and proteinase K show a hydrogen bonding network from the protease to the backbone of their substrate at four amino acid positions. Applicants postulated that N-methylation would result in a steric clash between the substrate and protease, thereby inhibiting the ability of the protease to bind to the peptide. In enzyme kinetic terms, this would result in an enhancement of Km. Additionally, several experiments have shown that proteases such as chymotrypsin, will not cut all of their predicted digest sites equally. It has long been observed that secondary structure will have an effect on proteolysis of a protein. However, there are now several independent examples of peptides with, with no predicted secondary structure that have predicted protease digest sites that are not proteolyzed. Applicants suspect that there may be some local sequence context that is inhibitor for proteolysis. This sequence context may either make it harder for the protease to bind its substrate (Km), or it may make it more difficult for the protease to perform catalysis on the substrate (Vmax). To investigate the origin of these enhancements, Applicants conducted a basic kinetic study with chymotrypsin. Proteinase K digested GIBP too quickly for this type of analysis but could be utilized in other systems and with other peptides."}, "Gαi1": {"target": "T2, Gαi1 (Homo sapiens, UniProt P63096)", "T2 construct": "made in house; host or cells: TNT (coupled in vitro transcription/translation), radiolabeled", "T2 sequence (P63096 whole entry)": "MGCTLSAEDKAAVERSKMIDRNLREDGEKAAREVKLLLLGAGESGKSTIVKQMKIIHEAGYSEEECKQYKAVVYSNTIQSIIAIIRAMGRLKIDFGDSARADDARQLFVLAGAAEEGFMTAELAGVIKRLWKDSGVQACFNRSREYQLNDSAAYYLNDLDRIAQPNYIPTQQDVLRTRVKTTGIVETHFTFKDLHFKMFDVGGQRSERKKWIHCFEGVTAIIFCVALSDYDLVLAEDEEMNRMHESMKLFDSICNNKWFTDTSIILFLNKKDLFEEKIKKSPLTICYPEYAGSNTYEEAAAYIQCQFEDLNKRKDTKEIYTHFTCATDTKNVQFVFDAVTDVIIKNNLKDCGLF", "assay": "TNT pulldown specificity analysis with radiolabeled Gα subunits", "assay_type": "binding", "conditions": "C-terminally biotinylated peptide on NeutrAvidin-agarose", "method": "TNT pulldown experiments were carried out as previously described in Stoop and Craik (2003) Nat. Biotech 21:1063. […] Control NeutrAvidin-agarose was treated with DMSO alone. Binding reactions proceeded for 1 h at 4° C. followed by filtration and washing with 1× selection buffer. The matrix was analyzed by scintillation counting, and the percent bound was determined by the matrix counts divided by the total counts as determined by TCA precipitation. […] The peptide was immobilized on NeutrAvidin-agarose and used to pull down radiolabeled protein. […] This was true both for specificity within the Gα family as well as state specificity of Gαi1. In fact, there was a small enhancement of specificity for the target Gαi1 over a protein with nearly 85% sequence similarity, Gαi2. […] The ability to retain or enhance selectivity for a desired target is of tremendous importance for therapeutic and diagnostic development."}, "chymotrypsin [4]": {"target": "T1, chymotrypsin", "assay": "Protease resistance experiment, chymotrypsin digest", "assay_type": "in vitro ADME", "method": "Immobilized chymotrypsin and proteinase K purchased from Sigma.\nProtease resistance enhancement was then tested.\nTowards that end, three peptides were synthesized. […] The effects were dramatic and surprising."}, "Human microsome digests": {"assay": "Human microsome digests", "assay_type": "in vitro ADME", "method": "Pooled, mixed gender human microsomes containing cytochrome P450's were obtained from Xenotech. 100 μL of microsomes were added to 500 of PBS buffer containing 250 nmoles of peptide with 1% DMSO. 50 μL aliquots were removed at various time points and worked up in the same manner as the human serum digests.\nAnother vital area for the in vivo processing of drugs is the liver. All blood is eventually filtered through the liver, where various types of enzymes functionalize drugs for the purpose of excretion. […] These enzymes are largely involved in the oxidation of drugs, and can be found on the […]. Human liver microsomes are functional liver extract containing cytochrome P450s. Therefore half-life of modification of peptides by cytochrome P450s from exposure to human microsomes was examined. The results were similar to the human serum result in that both cyclization and N-methylation were necessary for significant enhancement of resistance to modification. […] This is interesting because the trait of protease resistance, not resistance to cytochrome P450 modification was a selection criteria.\nA similar experiment was performed analyzing protease resistance to cytochrome P450 degradation. Peptide was incubated with human liver microsomes at 37° C. All peptides were highly protease resistant. […]"}},
  "data": [
    {"smiles": "CSCC[C@@H]1NC(=O)CCCC(=O)NCCCC[C@@H](C(N)=O)NC(=O)[C@H](CO)NC(=O)[C@H](Cc2c[nH]c3ccccc23)NC(=O)[C@H](CCC(N)=O)NC(=O)[C@H](C)N(C)C(=O)[C@H](Cc2ccc(O)cc2)NC(=O)[C@H](CCC(=O)O)NC(=O)[C@H](Cc2ccc(O)cc2)NC(=O)[C@H](C)N(C)C(=O)[C@H](Cc2ccc(O)cc2)NC(=O)[C@H](Cc2ccccc2)NC1=O", "note": "[cycSUPR]", "values": [
      {"measurement": "fold increase in in vivo half-life over cycGIBP", "setting": "[1]", "result": "roughly 35 fold"},
      {"measurement": "oral uptake efficiency", "setting": "[2]", "result": "did not show any detectable oral uptake"},
      {"measurement": "Km and Vmax of chymotrypsin digestion", "setting": "chymotrypsin [3]", "result": "optimized for protease resistance relative to cycGIBP"},
      {"measurement": "specificity within the Gα family and state specificity of Gαi1", "setting": "Gαi1", "result": "retained specificity of its parent molecule"},
      {"measurement": "fold more resistant to chymotrypsin", "setting": "chymotrypsin [4]; compared to CycGIBP", "result": "~200", "unit": "fold"},
      {"measurement": "digest sites found from chymotrypsin", "setting": "chymotrypsin [4]; five theoretical digest sites", "result": "two"},
      {"measurement": "resistance to cytochrome P450 degradation", "setting": "Human microsome digests; human liver microsomes, 37° C (Experiment No. 4)", "result": "more preotease resistant than the Her-2 binding peptides"},
      {"measurement": "stability to human liver microsomes (cytochrome P450s)", "setting": "Human microsome digests; versus cycGIBP or linSUPR", "result": "nearly an order of magnitude increase in stability"}
    ]}
  ]
}
